# ChEMBL document CHEMBL3632482, “Nitrogen Oxide Inhibitory Trimeric and Dimeric Carbazole Alkaloids from Murraya tetramera” (J Nat Prod, 2015)
# Key:
# [1] = Cytotoxicity against mouse BV2 cells assessed as effect on cell viability after 24 hrs by MTT assay; format: cell-based; settings: bv-2, 24 h
# [2] = Antiinflammatory activity in mouse BV2 cells assessed as inhibition of LPS-stimulated nitric oxide production after 24 hrs by Griess assay; format: functional, cell-based; settings: BV-2, 24 h
# [3] = Antiinflammatory activity in mouse BV2 cells assessed as inhibition of LPS-stimulated nitric oxide production at 40 uM after 24 hrs by Griess assay relative to control; format: functional; settings: BV-2, 24 h
# [4] = Cytotoxicity against mouse BV2 cells assessed as cell viability at 40 uM after 24 hrs by MTT assay relative to control; format: cell-based, BV-2; settings: read-out: Activity
IC50 [2],Compound,Activity [1],inhibition at 40 µM [3],"viability at 24 h, 40 µM [4]"
27.2 µM,COn1c2ccccc2c2cc(COCc3ccc4c(c3)c3cc(Cc5ccc6c(c5)c5ccccc5n6OC)ccc3n4OC)ccc21,Non-toxic,,
,COn1c2ccccc2c2cc(COCc3ccc4c(c3)c3ccccc3n4Cc3ccc4c(c3)c3ccccc3n4OC)ccc21,Non-toxic,< 20%,
,COc1cc(Cc2c(O)c(C)cc3c2[nH]c2ccccc23)cc2c1[nH]c1ccccc12,,,< 80%
11.4 µM,COc1cc(Cc2c(C)cc3c([nH]c4ccccc43)c2OC)cc2c1[nH]c1ccccc12,Non-toxic,,
26.7 µM,COc1cc(C)c(Cc2ccc3[nH]c4ccccc4c3c2)c2c1[nH]c1ccccc12,Non-toxic,,
,COc1cc(Cc2ccc3[nH]c4c(OC)c(O)c(C)cc4c3c2)cc2c1[nH]c1ccccc12,,,< 80%
,COc1cc(Cn2c3ccccc3c3cc(C)c(O)c(OC)c32)cc2c1[nH]c1ccccc12,,,< 80%
,COc1c(O)c(C)cc2c3ccccc3n(Cc3ccc4[nH]c5ccccc5c4c3)c12,,,< 80%
,COc1cc(Cn2c3ccccc3c3cc(C)c(O)cc32)cc2c1[nH]c1ccccc12,,,< 80%
17.9 µM,COc1cc(Cn2c3ccccc3c3cc(C=O)ccc32)cc2c1[nH]c1ccccc12,Non-toxic,,
,COc1ccc2c([nH]c3c(-c4c(O)c(C)cc5c4[nH]c4ccccc45)c(O)c(C)cc32)c1C=O,,,< 80%
,COc1ccc2c([nH]c3c(-c4c(O)c(C)cc5c4[nH]c4c(C=O)c(OC)ccc45)c(O)c(C)cc32)c1C=O,,,< 80%
21.9 µM,COn1c2ccccc2c2cc(COCc3ccc4[nH]c5ccccc5c4c3)ccc21,Non-toxic,,
19.3 µM,COc1cc(Cn2c3ccccc3c3cc(CO)cc(OC)c32)cc2c1[nH]c1ccccc12,Non-toxic,,
38.5 µM,COc1cc(Cn2c3ccccc3c3cc(C=O)cc(OC)c32)cc2c1[nH]c1ccccc12,Non-toxic,,
11.2 µM,COn1c2ccccc2c2cc(COCc3ccc4c(c3)c3ccccc3n4OC)ccc21,Non-toxic,,
18.6 µM,COc1cc(Cc2c(C)cc(OC)c3[nH]c4ccccc4c23)cc2c1[nH]c1ccccc12,Non-toxic,,

Compound,IC50 [2],Activity [1],inhibition at 40 µM [3],"viability at 24 h, 40 µM [4]"
O=c1c(O)c(-c2ccc(O)c(O)c2)oc2cc(O)cc(O)c12 [QUERCETIN],17.4 µM,,,
